Assay results reported in ChEMBL document CHEMBL5728971, “Small molecule inhibitors of lactate dehydrogenase and methods of use thereof” (2022).

experiment: Biochemical Assay: Test compounds were placed in a Greiner Bio-One (Monroe, N.C.) 1536-well black solid bottom assay plate. 200 millimolar (mM) Tris HCl, pH 7.4, 100 micromolar (μM) EDTA and 0.01% TWEEN-20™, final concentration, was used as the assay buffer. The LDHA reagent was 2 nanomolar (nM) Human LDHA (Meridian Life Science, Inc., Memphis, Tenn.), final concentration, in assay buffer.

IC50 | SMILES
< 100 nM | Cc1csc(-c2cc(-c3nn(-c4nc(C(=O)O)cs4)c(CC4CC4)c3Cc3ccc(S(N)(=O)=O)c(F)c3)ccc2F)c1
< 100 nM | NS(=O)(=O)c1ccc(Cc2c(-c3ccc(F)c(-c4cccc(F)c4)c3)nn(-c3nc(C(=O)O)cs3)c2C2CC2)cc1F
< 100 nM | Cc1ccc(-c2cc(-c3nn(-c4nc(C(=O)O)cs4)c(CC4CC4)c3Cc3ccc(S(N)(=O)=O)cc3F)ccc2F)s1
in the range around 29000 nM | Cc1ccc(-c2cccc(-c3c(Cc4ccc(S(N)(=O)=O)c(F)c4)c(C4CC4)nn3-c3nc(C(=O)O)cs3)c2)cc1
> 57000 nM | CNS(=O)(=O)c1ccc(Cc2c(-c3cccc(-c4ccccc4)c3)nn(-c3nc(C(=O)O)cs3)c2O)cc1
< 100 nM | CC(C)(O)C#Cc1cc(-c2nn(-c3nc(C(=O)O)cs3)c(CC3CC3)c2Cc2ccc(S(N)(=O)=O)c(F)c2)ccc1F
< 100 nM | NS(=O)(=O)c1ccc(Cc2c(-c3ccc(F)c(C#CC4(O)COC4)c3)nn(-c3nc(C(=O)O)cs3)c2CC2CC2)cc1F
< 100 nM | Cc1ccc(-c2cc(-c3nn(-c4nc(C(=O)O)cs4)c(CC4CC4)c3Cc3ccc(S(N)(=O)=O)c(F)c3)ccc2F)o1
in the range around 29000 nM | CCOC(=O)c1csc(-n2nc(-c3ccc(F)c(-c4ccc(C)cc4)c3)c(Cc3ccc(S(N)(=O)=O)c(F)c3)c2CC2CC2)n1
> 57000 nM | O=C(O)c1csc(-n2nc(-c3ccc(F)c(F)c3)c(Cc3ccccc3)c2O)n1
in the range around 29000 nM | CCOC(=O)c1csc(-n2nc(-c3ccc(F)c(C#CC4CCCC4)c3)c(Cc3ccc(S(N)(=O)=O)cc3)c2CC2CC2)n1
< 100 nM | NS(=O)(=O)c1ccc(Cc2c(-c3cccc(-c4cccc(F)c4)c3)nn(-c3nc(C(=O)O)cs3)c2CC2CC2)cc1F
< 100 nM | NS(=O)(=O)c1ccc(Cc2c(-c3ccc(F)c(C4=CCNCC4)c3)nn(-c3nc(C(=O)O)cs3)c2CC2CC2)cc1F
in the range around 29000 nM | NS(=O)(=O)c1ccc(Cc2c(CC3CC3)nn(-c3nc(C(=O)O)cs3)c2-c2ccc(F)c(-c3ccc(F)cc3)c2)cc1
< 100 nM | NS(=O)(=O)c1ccc(Cc2c(-c3cccc(C(O)(C4CC4)C(F)(F)F)c3)nn(-c3nc(C(=O)O)cs3)c2CC2CC2)cc1F (stereo not given)
< 100 nM | NS(=O)(=O)c1ccc(Cc2c(-c3ccc(F)c(C#CC4CCOC4)c3)nn(-c3nc(C(=O)O)cs3)c2CC2CC2)cc1F (stereo not given)
< 100 nM | NS(=O)(=O)c1ccc(Cc2c(-c3cccc(N4CCCC(C(F)(F)F)C4)c3)nn(-c3nc(C(=O)O)cs3)c2CC2CC2)cc1F (stereo not given)
> 57000 nM | CCOC(=O)c1csc(-n2nc(-c3cccc(C#CC4CCCC4)c3)c(Cc3ccc(S(N)(=O)=O)c(F)c3)c2CC2CC2)n1
< 100 nM | NS(=O)(=O)c1ccc(Cc2c(-c3cccc(OCc4ccccc4)c3)nn(-c3nc(C(=O)O)cs3)c2CC2CC2)cc1F
< 100 nM | CC(C)c1cc(-c2nn(-c3nc(C(=O)O)cs3)c(CC3CC3)c2Cc2ccc(S(N)(=O)=O)c(F)c2)ccc1F

More lines, now with the values behind:

SMILES | IC50
Cc1cnc(-c2cc(-c3nn(-c4nc(C(=O)O)cs4)c(CC4CC4)c3Cc3ccc(S(N)(=O)=O)c(F)c3)ccc2F)s1 | < 100 nM
NS(=O)(=O)c1ccc(Cc2cn(-c3nc(C(=O)O)cs3)nc2-c2ccccc2)cc1 | < 100 nM
NS(=O)(=O)c1ccc(Cc2c(-c3cccc(N4CCOCC4)c3)nn(-c3ncc(C(=O)O)s3)c2CC2CC2)cc1F | < 100 nM
Cc1ccc(-c2cccc(-c3c(Cc4ccc(S(N)(=O)=O)cc4F)c(C4CC4)nn3-c3nc(C(=O)O)cs3)c2)cc1 | in the range around 29000 nM
CC(C)(C)/C=C/c1cc(-c2nn(-c3nc(C(=O)O)cs3)c(CC3CC3)c2Cc2ccc(S(N)(=O)=O)c(F)c2)ccc1F | < 100 nM
NS(=O)(=O)c1ccc(Cc2c(-c3ccc(F)c(C4=COCCC4)c3)nn(-c3nc(C(=O)O)cs3)c2CC2CC2)cc1F | < 100 nM
CCOC(=O)c1csc(-n2nc(-c3cccc(-c4ccccc4)c3)c(Cc3ccc(S(N)(=O)=O)cc3)c2C2(C(F)(F)F)CC2)n1 | > 57000 nM
NS(=O)(=O)c1ccc(Cc2c(CC3CC3)nn(-c3nc(C(=O)O)cs3)c2-c2ccc(F)c(-c3ccc(C4CC4)cc3)c2)cc1 | in the range around 29000 nM
Cc1noc(C)c1-c1cc(-c2nn(-c3nc(C(=O)O)cs3)c(CC3CC3)c2Cc2ccc(S(N)(=O)=O)c(F)c2)ccc1F | < 100 nM
CCOC(=O)c1csc(-n2nc(-c3cccc(OC4CCCC4)c3)c(Cc3ccc(S(N)(=O)=O)c(F)c3)c2CC2CC2)n1 | in the range around 29000 nM
NS(=O)(=O)c1ccc(Cc2c(-c3cccc(-c4ccccc4)c3)nn(-c3nc(C(=O)O)cs3)c2CC2CC2)cc1F | < 100 nM
COc1cccc(-c2cc(-c3c(Cc4ccc(S(N)(=O)=O)cc4F)c(CC4CC4)nn3-c3nc(C(=O)O)cs3)ccc2F)c1 | in the range around 29000 nM
Cc1oc(=O)oc1COC(=O)c1csc(-n2nc(-c3ccc(F)c(C#CC4CCCC4)c3)c(Cc3ccc(S(N)(=O)=O)c(F)c3)c2CC2CC2)n1 | > 57000 nM
Cc1csc(-c2cc(-c3c(Cc4ccc(S(N)(=O)=O)c(F)c4)c(CC4CC4)nn3-c3nc(C(=O)O)cs3)ccc2F)c1 | > 57000 nM
Cc1csc(-c2cc(-c3nn(-c4nc(C(=O)O)cs4)c(CC4CC4)c3Cc3ccc(S(N)(=O)=O)cc3F)ccc2F)c1 | < 100 nM
O=C(O)c1csc(-n2nc(-c3ccccc3)cc2C(F)(F)F)n1 | in the range around 29000 nM
C=C(c1cc(-c2nn(-c3nc(C(=O)O)cs3)c(CC3CC3)c2Cc2ccc(S(N)(=O)=O)c(F)c2)ccc1F)C(F)(F)F | < 100 nM
NS(=O)(=O)c1ccc(Cc2c(-c3ccc(F)c(-c4cccc(F)c4)c3)nn(-c3nc(C(=O)O)cs3)c2CC2CC2)cc1F | < 100 nM
CCOC(=O)c1csc(-n2nc(CC3CC3)c(Cc3ccc(S(N)(=O)=O)cc3F)c2-c2ccc(F)c(-c3cccc(F)c3)c2)n1 | > 57000 nM
COc1cccc(-c2cc(-c3nn(-c4nc(C(=O)O)cs4)c(C(F)(F)F)c3Cc3ccc(S(N)(=O)=O)cc3)ccc2F)c1 | < 100 nM
Cc1ccc(-c2cc(-c3nn(-c4nc(C(=O)O)cs4)c(CC4CC4)c3Cc3ccc(S(N)(=O)=O)cc3)ccc2F)cc1 | < 100 nM
CS(=O)(=O)c1ccc(Cc2c(-c3ccc(F)c(C#CCC4CCCO4)c3)nn(-c3nc(C(=O)O)cs3)c2CC2CC2)cc1F (stereo not given) | < 100 nM
CCOC(=O)c1csc(-n2nc(-c3ccc(F)c(-c4ccc(F)cc4)c3)c(Cc3ccc(S(N)(=O)=O)cc3F)c2CC2CC2)n1 | in the range around 29000 nM

SMILES | IC50
NS(=O)(=O)c1ccc(Cc2c(-c3ccc(F)c(-c4cccc(F)c4)c3)nn(-c3nc(C(=O)O)cs3)c2C2CC2)c(F)c1 | < 100 nM
NS(=O)(=O)c1ccc(Cc2c(-c3ccc(F)c(C4CCC4)c3)nn(-c3nc(C(=O)O)cs3)c2CC2CC2)cc1F | < 100 nM
NS(=O)(=O)c1ccc(Cc2c(CC3CC3)nn(-c3nc(C(=O)O)cs3)c2-c2cccc(OCc3ccccc3)c2)cc1 | in the range around 29000 nM
CCOC(=O)c1csc(-n2nc(-c3ccc(F)c(-c4cccc(F)c4)c3)c(Cc3ccc(S(N)(=O)=O)cc3F)c2CC2CC2)n1 | in the range around 29000 nM
NS(=O)(=O)c1ccc(Cc2c(-c3ccc(F)c(C4CC4)c3)nn(-c3nc(C(=O)O)cs3)c2CC2CC2)cc1F | < 100 nM
NS(=O)(=O)c1ccc(Cc2c(-c3ccc(F)c(-c4ccc(F)cc4)c3)nn(-c3nc(C(=O)O)cs3)c2C2CC2)c(F)c1 | < 100 nM
COc1cccc(-c2cccc(-c3c(Cc4ccc(S(N)(=O)=O)cc4F)c(C4CC4)nn3-c3nc(C(=O)O)cs3)c2)c1 | in the range around 29000 nM
NS(=O)(=O)c1ccc(Cc2c(-c3ccc(F)c(OCC4CC4(F)F)c3)nn(-c3nc(C(=O)O)cs3)c2CC2CC2)cc1F (stereo not given) | < 100 nM
C/C=C/c1cc(-c2nn(-c3nc(C(=O)O)cs3)c(CC3CC3)c2Cc2ccc(S(N)(=O)=O)c(F)c2)ccc1F | < 100 nM
NS(=O)(=O)c1ccc(Cc2c(-c3ccc(F)c(C#CCC4CCCC4)c3)nn(-c3nc(C(=O)O)cs3)c2CC2CC2)cc1F | < 100 nM
O=C(O)c1csc(-n2nc(-c3cc(F)cc(F)c3)cc2O)n1 | > 57000 nM
NS(=O)(=O)c1ccc(Cc2c(-c3cccc(C#CC4CCCC4)c3)nn(-c3nc(C(=O)O)cs3)c2CC2CC2)cc1F | < 100 nM
COc1cccc(-c2cc(-c3nn(-c4nc(C(=O)O)cs4)c(C4CC4)c3Cc3ccc(S(N)(=O)=O)c(F)c3)ccc2F)c1 | < 100 nM
CCOC(=O)c1csc(-n2nc(-c3ccccc3)c(Oc3ccc(S(N)(=O)=O)cc3)c2C2CCCCC2)n1 | > 57000 nM
C=C(C)c1cc(-c2nn(-c3nc(C(=O)O)cs3)c(CC3CC3)c2Cc2ccc(S(N)(=O)=O)c(F)c2)ccc1F | < 100 nM
NS(=O)(=O)c1ccc(Cc2c(-c3ccc(F)c(C#CC4(F)COC4)c3)nn(-c3nc(C(=O)O)cs3)c2CC2CC2)cc1F | < 100 nM
Cc1ccc(-c2cc(-c3nn(-c4nc(C(=O)O)cs4)c(CC4CC4)c3Cc3ccc(S(N)(=O)=O)c(F)c3)ccc2F)cc1 | < 100 nM
CCOC(=O)c1csc(-n2nc(-c3ccc(F)c(-c4cccc(F)c4)c3)c(Cc3ccc(S(N)(=O)=O)c(F)c3)c2C2CC2)n1 | in the range around 29000 nM
O=C(O)c1ccc(Cc2c(-c3cccc(-c4ccccc4)c3)nn(-c3nc(C(=O)O)cs3)c2O)cc1 | > 57000 nM
NS(=O)(=O)c1ccc(Cc2c(-c3ccc(F)c(Br)c3)nn(-c3nc(C(=O)O)cs3)c2CC2CC2)cc1 | < 100 nM
NS(=O)(=O)c1cccc(Cc2c(-c3ccc(F)c(C#CC4CCCC4)c3)nn(-c3nc(C(=O)O)cs3)c2CC2CC2)c1 | in the range around 550 nM
O=C(O)c1csc(-n2nc(-c3ccc(Cl)cc3)cc2C(F)(F)F)n1 | in the range around 29000 nM
